# Laboratory results as given in patent publication US20200163984A1, “USE OF ISOVALERYL SPIRAMYCIN I, II AND/OR III IN MANUFACTURING MEDICAMENT FOR TREATING AND/OR PREVENTING TUMOR, AND MEDICAMENT” (SHENYANG FUYANG PHARMACEUTICAL TECHNOLOGY CO., LTD., priority 2017, published 2020).
# Tests used:
# [1] = tested on: spleen lymphocytes (ConA, LPS stimulation); test: Spleen lymphocyte proliferation activity of Lewis lung cancer tumor-bearing mice; type: in vivo, C57BL/6 mouse; details: for lymphocyte activity compared with the control group: Lewis tumor-bearing mice, 13, 26 and 52 mg/kg, P<0.05, P<0.01; for B Lymphocyte Proliferation Activity (%) / T Lymphocyte Proliferation Activity (%): n = 6
# Protocol: In the Lewis lung cancer model, the mice inoculated with the tumor were randomly divided into groups with 10 mice in each group the next day of inoculation. The groups included: a model control group, a positive drug cyclophosphamide control group (CTX, 30 mg/kg), isovaleryl spiramycin I groups with doses of 13, 26 and 52 mg/kg; isovaleryl spiramycin II groups with doses of 13, 26 and 52 mg/kg; isovaleryl spiramycin III groups with doses of 13, 26 and 52 mg/kg. Each group was continuously administered intragastrically for 15 days with a dose of 20 ml/kg.
# The serum-free RPMI 1640 medium was placed in a dish, and then the dish was placed on ice. The spleen was aseptically taken and gently ground with a sterile glass slide to prepare a single cell suspension. The single cell suspension was filtered with a double-layer sterile gauze, washed twice with serum-free RPMI1640 medium, and centrifuged at 1,500 rpm for 5 min to remove the obtained supernatant. 2 mL of red blood cell lysate was added to the treated suspension, the mixture was allowed to stand for 2 min, and then 8 mL of RPMI 1640 medium was added, centrifuging was performed at 1,500 rpm for 5 min to remove the obtained supernatant, and then washing was performed twice with the RPMI 1640 medium. […] A single cell suspension was prepared by using a RPMI 1640 medium containing 10% fetal bovine serum.
# The spleen cell suspension was taken, and the cell density was adjusted to 1×10^7/mL. Each mouse was set with: A. a control well: 100 μL of RPMI 1640 medium was added; B. a concanavalin A (ConA) stimulation well: 100 μL (10 mg/L) of concanavalin A (ConA) solution was added; and C. a bacterial endotoxin (LPS) stimulating well: 100 μL (20 mg/L) of bacterial endotoxin (LPS) solution was added. The above cells were added to a 96-well plate, and then 100 μL of spleen cell suspension was added to each of the above wells. After the culture plate was transferred to a saturated humidity condition with a volume fraction of 5% CO2 at 37° C. for incubation for 72 h, 10 μL of MTT solution (5 g/L) was added to each well, and incubation was continued to be performed for 4 hours under the same conditions, then the culture was terminated. 100 μl of a triple solution (SDS 10 g, 10M HCl 0.1 mL, […] 5 mL, diluted with distilled water to 100 mL) was added, and the plate was shaken for 10 min to fully dissolve the crystals. The Optical Density (OD) of each well was measured at 570 nm, and the lymphocyte proliferation rate was calculated. Lymphocyte proliferation rate (%)=[(T-C)/C]×100%, wherein T was the Optical Density of the stimulation well, and C is the Optical Density of the control well.
# [2] = tested on: transplanted tumor of human cervical cancer cell HeLa; test: HeLa transplanted tumor in nude mice; details: for Tumor Volume (mm3) (d 1): d1; for tumor volume and relative tumor volume compared with the model group: low, medium and high doses, P<0.05; for mouse weight compared with the model group / Body Weight (g) (d1) / Body Weight (g) (d30): in vivo, mouse
# Protocol: HeLa cells in a logarithmic growth phase were taken and subjected to a trypan blue exclusion experiment showing that the cell viability was more than 95%, then the cells were subjected to trypsinization, centrifugation, and supernatant removal. Then cell concentration was adjusted to 1×10^7/ml with matrigel, then each nude mouse was inoculated subcutaneously with 0.2 ml of cells at its right armpit and recorded as the first day of inoculation. When the tumor grows to be greater than or equal to 100 mm^3, the mice were randomly divided into 11 groups with 6 mice in each group: a model group, a cyclophosphamide group, isovaleryl spiramycin I groups with doses of 25, 50 and 100 mg/kg, isovaleryl spiramycin II groups with doses of 25, 50 and 100 mg/kg, and isovaleryl spiramycin III groups with doses of 25, 50 and 100 mg/kg. Each group was continuously administered intragastrically for 30 days with a dose of 20 ml/kg. The mice were sacrificed the next day after drug withdrawal and the indicators were tested. The long diameter and short diameter of the tumor, and the body weight of each mouse were recorded every 3 days from drug administration to nude mouse sacrifice.
# The body weight of the nude mice and the long diameter (a) and short diameter (b) of the transplanted tumor were measured every 3 days, and the tumor volume (v), relative tumor volume (RTV) and relative tumor proliferation rate (T/C) are calculated respectively according to the following formulas, wherein V=a×b^2/2; RTV=V/V0 (V0 is the tumor volume before administration, V is the tumor volume before sacrifice), and T/C (%)=treatment group RTV/model control group RTV×100%.
# Each mouse was weighed and sacrificed. After the tumor was completely stripped off from the body of the mouse, the non-tumor tissues such as blood stains and fat were removed to weigh the tumor and calculate the tumor growth inhibition rate. The average tumor weight of each group of mice is used as an indicator of efficacy. Tumor growth inhibition rate (%)=(1−the average tumor weight of the treatment group/the average tumor weight of the model group)×100%.
# [3] = HeLa, high dose (100 mg/kg in method) i.g. 30 days
# [4] = HeLa, low dose (25 mg/kg in method) i.g. 30 days
# [5] = HeLa, medium dose (50 mg/kg in method) i.g. 30 days
SMILES,lymphocyte activity compared with the control group [1],B Lymphocyte Proliferation Activity (%) ([1]; dose 13 mg/kg),T Lymphocyte Proliferation Activity (%) ([1]; dose 13 mg/kg),B Lymphocyte Proliferation Activity (%) ([1]; dose 26 mg/kg),T Lymphocyte Proliferation Activity (%) ([1]; dose 26 mg/kg),B Lymphocyte Proliferation Activity (%) ([1]; dose 52 mg/kg),T Lymphocyte Proliferation Activity (%) ([1]; dose 52 mg/kg),"Inhibition Rate (%) ([2]; HeLa nude mice, 12.5 mg/kg)","Relative Tumor Proliferation Rate (T/C) ([2]; HeLa nude mice, 12.5 mg/kg)","Relative Tumor Volume (RTV) ([2]; HeLa nude mice, 12.5 mg/kg)","Tumor Weight ([2]; HeLa nude mice, 12.5 mg/kg)","Tumor Volume (mm3) (d 1) ([2]; HeLa nude mice, 12.5 mg/kg)","Tumor Volume (mm3) (d30) ([2]; HeLa nude mice, 12.5 mg/kg)","Inhibition Rate (%) ([2]; HeLa nude mice, 25 mg/kg)","Relative Tumor Proliferation Rate (T/C) ([2]; HeLa nude mice, 25 mg/kg)","Relative Tumor Volume (RTV) ([2]; HeLa nude mice, 25 mg/kg)","Tumor Weight ([2]; HeLa nude mice, 25 mg/kg)","Tumor Volume (mm3) (d 1) ([2]; HeLa nude mice, 25 mg/kg)","Tumor Volume (mm3) (d30) ([2]; HeLa nude mice, 25 mg/kg)","Inhibition Rate (%) ([2]; HeLa nude mice, 50 mg/kg)",other results
"COC1C(OC(C)=O)CC(=O)OC(C)CC=CC=CC(OC2CCC(N(C)C)C(C)O2)C(C)CC(CC=O)C1OC1OC(C)C(OC2CC(C)(O)C(OC(=O)CC(C)C)C(C)O2)C(N(C)C)C1O (stereo not drawn) [Isovaleryl spiramycin II, isovaleryl spiramycin II]",significantly increase,39.88 ± 3.57%,16.87 ± 3.28%,32.68 ± 2.68%,15.82 ± 1.68%,35.94 ± 3.80%,19.28 ± 2.35%,30.67%,68.55%,11.36 ± 2.90,1.34 ± 0.60 g,115.41 ± 23.27 mm3,1301.28 ± 391.77 mm3,42.90%,56.07%,9.30 ± 1.74,1.10 ± 0.62 g,125.04 ± 20.71 mm3,1184.42 ± 369.49 mm3,43.30%,"Relative Tumor Proliferation Rate (T/C) ([2]; HeLa nude mice, 50 mg/kg): 45.96%; Relative Tumor Volume (RTV) ([2]; HeLa nude mice, 50 mg/kg): 7.62 ± 0.85; Tumor Weight ([2]; HeLa nude mice, 50 mg/kg): 1.10 ± 0.61 g; Tumor Volume (mm3) (d 1) ([2]; HeLa nude mice, 50 mg/kg): 111.84 ± 4.83 mm3; Tumor Volume (mm3) (d30) ([2]; HeLa nude mice, 50 mg/kg): 851.58 ± 93.66 mm3; Relative Tumor Proliferation Rate (T/C) [2, 3]: 43.30%; tumor growth inhibition rate [2, 3]: 43.30%; Relative Tumor Proliferation Rate (T/C) [2, 4]: 30.67%; tumor growth inhibition rate [2, 4]: 30.67%; tumor volume and relative tumor volume compared with the model group ([2]; HeLa): significantly lower; Relative Tumor Proliferation Rate (T/C) [2, 5]: 42.90%; tumor growth inhibition rate [2, 5]: 42.90%; mouse weight compared with the model group [2]: no significant changes; Body Weight (g) (d1) ([2]; 12.5 mg/kg): 20.92 ± 0.46 g; Body Weight (g) (d30) ([2]; 12.5 mg/kg): 21.16 ± 0.51 g; Body Weight (g) (d1) ([2]; 25 mg/kg): 20.87 ± 0.34 g; Body Weight (g) (d30) ([2]; 25 mg/kg): 21.25 ± 0.55 g; Body Weight (g) (d1) ([2]; 50 mg/kg): 20.77 ± 0.43 g; Body Weight (g) (d30) ([2]; 50 mg/kg): 21.09 ± 0.36 g"
"CCC(=O)O[C@@H]1CC(=O)O[C@H](C)C/C=C/C=C/[C@H](O[C@H]2CC[C@H](N(C)C)[C@@H](C)O2)[C@H](C)C[C@H](CC=O)[C@H](O[C@@H]2O[C@H](C)[C@@H](O[C@H]3C[C@@](C)(O)[C@@H](OC(=O)CC(C)C)[C@H](C)O3)[C@H](N(C)C)[C@H]2O)[C@H]1OC [Isovaleryl spiramycin III, isovaleryl spiramycin III]",significantly increase,33.91 ± 2.65%,20.17 ± 5.18%,34.69 ± 0.34%,18.51 ± 2.60%,32.28 ± 1.27%,18.25 ± 1.89%,39.33%,62.92%,1.43 ± 1.47,1.17 ± 0.64 g,123.36 ± 21.45 mm3,1281.92 ± 242.71 mm3,52.41%,52.05%,8.63 ± 3.37,0.92 ± 0.49 g,115.2 ± 27.18 mm3,1007.46 ± 481.36 mm3,61.68%,"Relative Tumor Proliferation Rate (T/C) ([2]; HeLa nude mice, 50 mg/kg): 39.33%; Relative Tumor Volume (RTV) ([2]; HeLa nude mice, 50 mg/kg): 6.52 ± 0.73; Tumor Weight ([2]; HeLa nude mice, 50 mg/kg): 0.75 ± 0.11 g; Tumor Volume (mm3) (d 1) ([2]; HeLa nude mice, 50 mg/kg): 113.35 ± 20.84 mm3; Tumor Volume (mm3) (d30) ([2]; HeLa nude mice, 50 mg/kg): 727.16 ± 46.92 mm3; Relative Tumor Proliferation Rate (T/C) [2, 3]: 61.68%; tumor growth inhibition rate [2, 3]: 61.68%; Relative Tumor Proliferation Rate (T/C) [2, 4]: 39.33%; tumor growth inhibition rate [2, 4]: 39.33%; tumor volume and relative tumor volume compared with the model group ([2]; HeLa): significantly lower; Relative Tumor Proliferation Rate (T/C) [2, 5]: 52.41%; tumor growth inhibition rate [2, 5]: 52.41%; mouse weight compared with the model group [2]: no significant changes; Body Weight (g) (d1) ([2]; 12.5 mg/kg): 21.30 ± 0.64 g; Body Weight (g) (d30) ([2]; 12.5 mg/kg): 20.67 ± 0.45 g; Body Weight (g) (d1) ([2]; 25 mg/kg): 20.87 ± 0.78 g; Body Weight (g) (d30) ([2]; 25 mg/kg): 20.80 ± 0.55 g; Body Weight (g) (d1) ([2]; 50 mg/kg): 21.09 ± 0.51 g; Body Weight (g) (d30) ([2]; 50 mg/kg): 21.10 ± 0.52 g"
